{"source": "patent US9695155B2", "about": "“Herbicidal substituted pyrimidinyloxy benzene compounds” (E. I. DU PONT DE NEMOURS AND COMPANY, priority 2013, dated 2017)", "key": {"chickweed": {"system": "chickweed", "assay": "Test D postemergence", "format": "in vivo, Stellaria media", "text": "(§1) Seeds of plant species selected from bluegrass (annual bluegrass, Poa annua), blackgrass (Alopecurus myosuroides), canarygrass (littleseed canarygrass, Phalaris minor), chickweed (common chickweed, Stellaria media), galium (catchweed bedstraw, Galium aparine), bromegrass, downy (downy bromegrass, Bromus tectorum), field poppy (Papaver rhoeas), field violet (Viola arvensis), green foxtail (Setaria viridis), deadnettle (henbit deadnettle, Lamium amplexicaule), Italian ryegrass (Lolium multiflorum), kochia (Kochia scoparia), lambsquarters (Chenopodium album), oilseed rape (Brassica napus), pigweed (Amaranthus retroflexus), chamomile (scentless chamomile, Matricaria inodora), Russian thistle (Salsola kali), speedwell (bird's-eye speedwell, Veronica persica), spring barley (Hordeum vulgare), spring wheat (Triticum aestivum), wild buckwheat (Polygonum convolvulus), wild mustard (Sinapis arvensis), wild oat (Avena fatua), wild radish (Raphanus raphanistrum), windgrass (Apera spica-venti), winter barley (Hordeum vulgare), and winter wheat (Triticum aestivum) were planted into a silt loam soil and treated preemergence with test chemicals formulated in a non-phytotoxic solvent mixture which included a surfactant.\n(§2) At the same time, these species were planted in pots containing Redi-Earth® planting medium (Scotts Company, 14111 Scottslawn Road, Marysville, Ohio 43041) comprising spaghnum peat moss, vermiculite, wetting agent and starter nutrients and treated with postemergence applications of the test chemicals formulated in the same manner. Plants ranged in height from 2 to 18 cm (1- to 4-leaf stage). Treated plants and controls were maintained in a controlled growth environment for 7 to 21 days after which time all species were compared to controls and visually evaluated. Plant response ratings, summarized in Table D, are based on a scale of 0 to 100 where 0 is no effect and 100 is complete control. A dash (-) response means no test result."}, "wild mustard": {"system": "wild mustard", "assay": "Test D preemergence", "format": "in vivo, Sinapis arvensis", "text": "as §1, §2"}, "lambsquarters": {"system": "lambsquarters", "assay": "Test D postemergence", "format": "in vivo, Chenopodium album", "text": "as §1, §2"}, "wild buckwheat": {"system": "wild buckwheat", "assay": "Test D postemergence", "format": "in vivo, Polygonum convolvulus", "text": "as §1, §2"}, "spring wheat": {"system": "spring wheat", "assay": "Test D preemergence", "format": "in vivo, Triticum aestivum", "summary_of_the_method": "(§3)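 Seeds sown in silt loam soil got preemergence sprays; plants in peat/vermiculite potting medium were sprayed postemergence at 2–18 cm (1- to 4-leaf stage). Chemicals were formulated in a non-phytotoxic solvent mixture with surfactant. After 7 to 21 days in a controlled environment, injury was rated visually versus controls, 0 (no effect) to 100 (complete control).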"}, "winter wheat": {"system": "winter wheat", "assay": "Test D preemergence", "format": "in vivo, Triticum aestivum", "summary_of_the_method": "as §3"}, "bluegrass": {"system": "bluegrass", "assay": "Test D preemergence", "format": "in vivo, Poa annua", "summary_of_the_method": "as §3"}, "field poppy": {"system": "field poppy", "assay": "Test D postemergence", "format": "in vivo, Papaver rhoeas", "summary_of_the_method": "as §3"}, "pigweed": {"system": "pigweed", "assay": "Test D postemergence", "format": "in vivo, Amaranthus retroflexus", "summary_of_the_method": "as §3"}, "deadnettle": {"system": "deadnettle", "assay": "Test D preemergence", "format": "in vivo, Lamium amplexicaule", "summary_of_the_method": "as §3"}, "windgrass": {"system": "windgrass", "assay": "Test D postemergence", "format": "in vivo, Apera spica-venti", "text": "as §1, §2"}, "[1]": {"conditions": "31 g ai/ha, scale 0 to 100 (0 no effect, 100 complete control)"}, "[2]": {"conditions": "62 g ai/ha, scale 0 to 100 (0 no effect, 100 complete control)"}, "[3]": {"conditions": "125 g ai/ha, scale 0 to 100 (0 no effect, 100 complete control)"}, "[4]": {"conditions": "16 g ai/ha, scale 0 (no effect) to 100 (complete control)"}, "[5]": {"conditions": "31 g ai/ha, scale 0 (no effect) to 100 (complete control)"}}, "data": [{"smiles": "FCc1cccc(Oc2ncc(Cl)cn2)c1-n1cc(I)cn1", "note": "[Compound 245]", "values": [{"measurement": "Plant response rating, Chickweed", "setting": "chickweed; 16 g ai/ha, scale 0-100", "value": 45}, {"measurement": "Plant response rating, Chickweed", "setting": "chickweed; [1]", "value": 75}, {"measurement": "Plant response rating, Chickweed", "setting": "chickweed; [2]", "value": 95}, {"measurement": "Plant response rating, Chickweed", "setting": "chickweed; [3]", "value": 98}, {"measurement": "Plant response rating, Mustard, Wild", "setting": "wild mustard; [4]", "value": 80}, {"measurement": "Plant response rating, Mustard, Wild", "setting": "wild mustard; 31 g ai/ha, scale 0-100", "value": 80}, {"measurement": "Plant response rating, Mustard, Wild", "setting": "wild mustard; 62 g ai/ha, scale 0-100", "value": 85}, {"measurement": "Plant response rating, Mustard, Wild", "setting": "wild mustard; 125 g ai/ha, scale 0-100", "value": 100}, {"measurement": "Plant response rating, Lambsquarters", "setting": "lambsquarters; 16 g ai/ha, scale 0-100", "value": 65}, {"measurement": "Plant response rating, Lambsquarters", "setting": "lambsquarters; [1]", "value": 80}, {"measurement": "Plant response rating, Lambsquarters", "setting": "lambsquarters; [2]", "value": 85}, {"measurement": "Plant response rating, Lambsquarters", "setting": "lambsquarters; [3]", "value": 95}, {"measurement": "Plant response rating, Buckwheat, Wild", "setting": "wild buckwheat; Postemergence, 62 g ai/ha, scale 0 to 100 (0 no effect, 100 complete control)", "value": 75}, {"measurement": "Plant response rating, Buckwheat, Wild", "setting": "wild buckwheat; Postemergence, 31 g ai/ha, scale 0 to 100 (0 no effect, 100 complete control)", "value": 70}, {"measurement": "Plant response rating, Buckwheat, Wild", "setting": "wild buckwheat; Postemergence, 125 g ai/ha, scale 0 to 100 (0 no effect, 100 complete control)", "value": 90}, {"measurement": "Plant response rating, Buckwheat, Wild", "setting": "wild buckwheat; postemergence, 16 g ai/ha, scale 0 to 100, 0 no effect, 100 complete control", "value": 70}, {"measurement": "Plant response rating, Wheat, Spring", "setting": "spring wheat; [4]", "value": 5}, {"measurement": "Plant response rating, Wheat, Spring", "setting": "spring wheat; [5]", "value": 10}, {"measurement": "Plant response rating, Wheat, Spring", "setting": "spring wheat; 125 g ai/ha, scale 0-100", "value": 20}, {"measurement": "Plant response rating, Wheat, Winter", "setting": "winter wheat; [4]", "value": 10}, {"measurement": "Plant response rating, Wheat, Winter", "setting": "winter wheat; [5]", "value": 15}, {"measurement": "Plant response rating, Wheat, Winter", "setting": "winter wheat; 125 g ai/ha, scale 0-100", "value": 30}, {"measurement": "Plant response rating, Bluegrass", "setting": "bluegrass; [4]", "value": 0}, {"measurement": "Plant response rating, Bluegrass", "setting": "bluegrass; 31 g ai/ha, scale 0-100", "value": 0}, {"measurement": "Plant response rating, Bluegrass", "setting": "bluegrass; 62 g ai/ha, scale 0-100", "value": 0}, {"measurement": "Plant response rating, Bluegrass", "setting": "bluegrass; 125 g ai/ha, scale 0-100", "value": 20}, {"measurement": "Plant response rating, Field Poppy", "setting": "field poppy; 16 g ai/ha, scale 0-100", "value": 90}, {"measurement": "Plant response rating, Field Poppy", "setting": "field poppy; [1]", "value": 95}, {"measurement": "Plant response rating, Field Poppy", "setting": "field poppy; [2]", "value": 80}, {"measurement": "Plant response rating, Field Poppy", "setting": "field poppy; [3]", "value": 100}, {"measurement": "Plant response rating, Pigweed", "setting": "pigweed; 16 g ai/ha, scale 0-100", "value": 95}, {"measurement": "Plant response rating, Pigweed", "setting": "pigweed; [1]", "value": 95}, {"measurement": "Plant response rating, Pigweed", "setting": "pigweed; [2]", "value": 100}, {"measurement": "Plant response rating, Pigweed", "setting": "pigweed; [3]", "value": 100}, {"measurement": "Plant response rating, Deadnettle", "setting": "deadnettle; [4]", "value": 0}, {"measurement": "Plant response rating, Deadnettle", "setting": "deadnettle; 31 g ai/ha, scale 0-100", "value": 0}, {"measurement": "Plant response rating, Deadnettle", "setting": "deadnettle; 62 g ai/ha, scale 0-100", "value": 0}, {"measurement": "Plant response rating, Deadnettle", "setting": "deadnettle; 125 g ai/ha, scale 0-100", "value": 15}, {"measurement": "Plant response rating, Windgrass", "setting": "windgrass; 16 g ai/ha, scale 0-100", "value": 10}, {"measurement": "Plant response rating, Windgrass", "setting": "windgrass; [1]", "value": 15}, {"measurement": "Plant response rating, Windgrass", "setting": "windgrass; [2]", "value": 15}, {"measurement": "Plant response rating, Windgrass", "setting": "windgrass; [3]", "value": 25}]}]}
